Test results published in patent US7786152B2, “Compound” (priority 2002, dated 2010).

Target: T1, 11 β-HSD type 1 (Rattus norvegicus, UniProt P16232)
T1 construct: Both the kidneys and livers were homogenised on ice in PBS-sucrose buffer; tissue Harlan Olac (rats); host or cells: Wistar rat liver homogenate supernatant
Assay: 11 β-HSD type 1 inhibition, rat liver homogenate, conversion E to F (radiometric TLC)
Type: biochemical
Settings: for inhibition at 10 µM: read-out: % inhibition of 11β HSD1 @ 10 μM, 10 μM, typical sd ± 5%, means n=2; for IC50: dose-response 1, 5, 10 and 20 μM, read-out: IC50 (11β HSD1)
Procedure: Enzymes—Rat livers and rat kidneys were obtained from normal Wistar rats (Harlan Olac, Bicester, Oxon, UK). Both the kidneys and livers were homogenised on ice in PBS-sucrose buffer (1 g/10 ml) using an Ultra-Turrax. After the livers and kidneys were homogenised the homogenate was centrifuged for five minutes at 4000 rpm. The supernatant obtained was removed and stored in glass vials at −20° C. The amount of protein per μl of rat liver and kidney cytosol was determined using the Bradford method.
11 β-HSD type 1 is the enzyme responsible for the conversion E to F and this type of enzyme is present in rat liver. The substrate solution used in this assay contained 70,000 cpm/ml ^3H-E in PBS-sucrose and 0.5 μM of unlabelled E and co-factor NADPH (9 mg/10 ml of substrate solution). 1 ml of the substrate solution and the different amounts of rat liver homogenate was added to all tubes.
The amount of rat liver homogenate needed for an assay was determined by incubating the substrate solution with 25, 50, 100 and 150 μl for 30, 60, 90 and 120 minutes at 37° C. in a water bath with the tubes being mechanically shaken. After the incubation 50 μL of recovery solution was added, containing about 8,000 cpm/50 μL of ^14C—F and 50 μg/50 μL of unlabelled F for visualising the spot on the TLC-plate, to correct for the losses made in the next two steps. F was then extracted from the aqueous phase with 4 ml of ether (2×30 sec cycle, vortex mix). The aqueous phase was then frozen using dry-ice and the organic layer was decanted and poured into smaller tubes and evaporated. 6 drops of ether were then added to the small tubes to re-dissolve the residue which was transferred to an aluminium thin layer chromatography plate (TLC-plate). The TLC-plate was developed in a TLC tank under saturated conditions. The solvent system used was chloroform:methanol 9:1 (v/v). The F spots on the TLC-plate were visualised under UV-light and cut out from the TLC-plate (Rf=0.45). The spots from the TLC-plate were then put into scintillation vials and 0.5 ml of methanol was added to all vials to elute the radioactivity from the TLC-plate for 5 minutes. 10 ml of Ecoscint was added to the scintillation vials and they were put into the scintillation counter to count amount of product formed.
In these assays the influence of different inhibitors on the 11 β-HSD activity both in reductive (type 1) and oxidative (type 2) directions were assessed. In the reductive direction E is the substrate and F the product and visa versa in the case of oxidation. The method described here is for the oxidative direction.
The substrate solution contained about 50,000 cpm/ml ^3H—F in PBS-sucrose and 0.5 μM F. 1 ml of the substrate solution was added to each tube, the inhibitors were also added, at a 10 μM concentration, to each tube except to the “control” and “blank” tubes. 150 μL was added to all tubes except to the blanks, this was done to correct for the amount of ^3H—F spontaneously formed. The tubes were incubated for 60 minutes in a mechanically shaken water bath at 37° C. The amount of kidney liver homogenate and incubation time used resulted from the enzyme- and time-dependency assay. After incubation 50 μL of recovery was added to correct for the losses made in the next steps, containing 5000 cpm/50 μL of ^14C-E and 50 μg/50 μL of unlabelled E (to visualise the spot on the TLC-plate). The aqueous mixture was then extracted with 4 ml of ether (2×30 sec cycle, vortex mix). After freezing the aqueous phase, the ether (upper) layer was decanted into smaller tubes and evaporated at 45° C. until completely dry. The residue was then re-dissolved in 6 drops of ether and transferred to a TLC-plate. The TLC-plate was developed in chloroform:methanol (9:1 v/v) solvent system, the TLC-plate ran for about 90 minutes until the solvent front had moved about 18 cm. The position of the product E was visualised under UV-light and cut out from the TLC-plate and put into scintillation vials. […]

T1 sequence (P16232 whole entry): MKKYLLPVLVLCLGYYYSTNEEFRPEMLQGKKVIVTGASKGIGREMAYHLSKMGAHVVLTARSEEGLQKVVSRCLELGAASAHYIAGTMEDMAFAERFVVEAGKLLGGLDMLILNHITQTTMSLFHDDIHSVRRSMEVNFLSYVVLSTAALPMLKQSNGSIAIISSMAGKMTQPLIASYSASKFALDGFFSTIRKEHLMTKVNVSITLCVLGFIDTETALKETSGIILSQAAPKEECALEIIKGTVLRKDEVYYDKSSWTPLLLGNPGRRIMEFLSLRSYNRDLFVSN

| Structure (SMILES) | inhibition at 10 µM [%] | IC50 [µM] |
| --- | --- | --- |
| Cc1nc2cc(NS(=O)(=O)c3ccc(Br)cc3)ccc2s1 [compound 519] | 48 |  |
| COc1ccc(S(=O)(=O)Nc2ccc3sc(C)nc3c2)cc1 [compound 424] | 24 |  |
| Cc1nc2cc(NS(=O)(=O)c3ccc(Cl)cc3Cl)ccc2s1 [compound 412] | 27 |  |
| Cc1nc2cc(NS(=O)(=O)c3cccc(Cl)c3C)ccc2s1 [compound 413] | 53 | 6.6 |
| Cc1nc2cc(NS(=O)(=O)c3c(C)c(C)c(C)c(C)c3C)ccc2s1 [compound 710] | 55 |  |
| COc1cc(C)ccc1S(=O)(=O)Nc1ccc2sc(C)nc2c1 [compound 584] | 48 |  |
| Cc1nc2cc(NS(=O)(=O)c3ccc4c(c3)CN(C(=O)C(F)(F)F)CC4)ccc2s1 [compound 581] | 77 |  |
| Cc1nc2cc(NS(=O)(=O)c3ccc(C(C)(C)C)cc3)ccc2s1 [compound 709] | 10 |  |
| Cc1nc2cc(NS(=O)(=O)c3cccc4cccnc34)ccc2s1 [compound 552] | 18 |  |
| Cc1nc2cc(NS(=O)(=O)c3ccc(Br)cc3C)ccc2s1 [compound 523] | 21 |  |
| Cc1nc2cc(NS(=O)(=O)c3c(Cl)cc(Cl)cc3Cl)ccc2s1 [compound 522] | 37 |  |
| Cc1nc2cc(NS(=O)(=O)c3cccc4c(N(C)C)cccc34)ccc2s1 [compound 554] | 69 |  |
| Cc1nc2cc(NS(=O)(=O)c3cccc4ccccc34)ccc2s1 [compound 553] | 0.7 |  |
| CC(=O)c1ccccc1S(=O)(=O)Nc1ccc2sc(C)nc2c1 [compound 701] | 34 |  |
| COc1c(C)c(C)c(S(=O)(=O)Nc2ccc3sc(C)nc3c2)c(C)c1C [compound 708] | 39 |  |
| Cc1nc2cc(NS(=O)(=O)c3c(C(C)C)cc(C(C)C)cc3C(C)C)ccc2s1 [compound 703] | 35 |  |
| Cc1nc2cc(NS(=O)(=O)c3ccc(C(C)C)cc3)ccc2s1 [compound 704] | 38 |  |
| COC(=O)c1ccccc1S(=O)(=O)Nc1ccc2sc(C)nc2c1 [compound 705] | 6 |  |
| Cc1nc2cc(NS(=O)(=O)c3c(C)cccc3Cl)ccc2s1 [compound 425] | 40 |  |
| Cc1nc2cc(N(C)S(=O)(=O)c3cccc(Cl)c3C)ccc2s1 [compound 469] | 63 |  |
| Cc1nc2cc(NS(=O)(=O)c3ccc(-c4ccccc4)cc3)ccc2s1 [compound 521] | 0.5 |  |
| CCCc1ccc(S(=O)(=O)Nc2ccc3sc(C)nc3c2)cc1 [compound 421] | 60 | 10 |
| CCN(c1ccc2sc(C)nc2c1)S(=O)(=O)c1cccc(Cl)c1C [compound 470] | 39 |  |
| Cc1nc2cc(NS(=O)(=O)c3ccccc3C#N)ccc2s1 [compound 583] | 29 |  |
| CCSc1nc2ccc(NS(=O)(=O)c3cccc(Cl)c3C)cc2s1 [compound 751] | 10 |  |
| Cc1nc2cc(NS(=O)(=O)c3cc(Cl)ccc3Cl)ccc2s1 [compound 580] | 75 |  |
| COc1ccc(Cl)cc1S(=O)(=O)Nc1ccc2sc(C)nc2c1 [compound 582] | 40 |  |
| Cc1nc2cc(NS(=O)(=O)c3ccc(Oc4ccccc4)cc3)ccc2s1 [compound 585] | 48 |  |
